Reference: patent US12391676B2 (H. LEE MOFFITT CANCER CENTER AND RESEARCH INSTITUTE, INC., priority 2018, dated 2025)

These molecules were tested against BRD4 (Homo sapiens (Human), UniProt O60885) (assay: BRD4 DSF thermal shift (ΔTm)). Details: Table 1.
Format: binding

| DSF ΔTm [°C] | Compound |
| --- | --- |
| 9.6 ± 0.9 | CN1CCN(c2ccc(Nc3ncc(F)c(Nc4ccc(Cl)c(NS(=O)(=O)C(C)(C)C)c4)n3)cc2)CC1 |
| 10.4 ± 0.1 | CN1CCC(c2ccc(Nc3ncc(C(F)(F)F)c(Nc4ccc(Cl)c(NS(=O)(=O)C(C)(C)C)c4)n3)cc2F)CC1 |
| 15.1 ± 0.1 | Cc1cnc(Nc2ccc(OCCN3CCCC3)c(F)c2)nc1Nc1ccc(Cl)c(NS(=O)(=O)C(C)(C)C)c1 |
| 12.9 ± 0.1 | Cc1cnc(Nc2ccc(OCCN3CCCC3)cc2)nc1Nc1ccc(Cl)c(NS(=O)(=O)C(C)(C)C)c1 |
| 12.6 ± 0.1 | Cc1cnc(Nc2ccc(OCCN3CCCC3)c(F)c2)nc1Nc1cccc(NS(=O)(=O)C(C)(C)C)c1 |
| 8.9 ± 0.2 | Cc1cnc(Nc2ccc(C3CCN(C)CC3)c(F)c2)cc1Nc1ccc2c(c1)N(S(=O)(=O)C(C)(C)C)CC2 [drawing 16] |

Same assay, conditions: Table 2

| Compound | BRD4 DSF (ΔTm) [°C] |
| --- | --- |
| Cc1cnc(Nc2ccc(OCCN3CCCC3)cc2)nc1Nc1cc(NS(=O)(=O)C(C)(C)C)ncn1 | 1.1 |
| Cc1cnc(Nc2ccc(N3CCN(C)CC3)c(F)c2)cc1Nc1ccc2c(c1)N(S(=O)(=O)C(C)(C)C)CC2 [MA9-042, N^4-(1-(tert-Butylsulfonyl)indolin-6-yl)-N^2-(3-fluoro-4-(4-methylpiperazin-1-yl)phenyl)-5-methylpyridine-2,4-diamine] | 6.1 |
| Cc1cnc(Nc2ccc(C3CCN(C)CC3)c(F)c2)cc1Nc1ccc2c(c1)N(S(=O)(=O)C(C)(C)C)CC2 [MA9-064, N4-(1-(Tert-butylsulfonyl)indolin-6-yl)-N2-(3-fluoro-4-(1-methylpiperidin-4-yl)phenyl)-5-methylpyridine-2,4-diamine] | 8.2 |
| Cc1cnc(Nc2ccc(C3CCN(C)CC3)c(F)c2)nc1Nc1ccc2ccn(S(=O)(=O)C(C)(C)C)c2n1 [MA10-148, N4-(1-(Tert-butylsulfonyl)-1H-pyrrolo[2,3b]pyridin-6-yl)-N2-(3-fluoro-4-(1-methylpiperidin-4-yl)phenyl)-5-methylpyrimidine-2,4-diamine] | 7.6 |
| Cc1cnc(Nc2cc(F)c(C3CCN(C)CC3)cn2)nc1Nc1ccc2ccn(S(=O)(=O)C(C)(C)C)c2n1 [MA10-149, N4-(1-(tert-butylsulfonyl)-1H-pyrrolo[2,3-b]pyridin-6-yl)-N2-(4-fluoro-5-(1-methylpiperidin-4-yl)pyridin-2-yl)-5-methylpyrimidine-2,4-diamine] | 6.2 |
| Cc1cnc(Nc2ccc(C3CCN(C)CC3)c(F)c2)nc1Nc1cc(NS(=O)(=O)C(C)(C)C)ncn1 [MA10-174, N-(6-((2-((3-fluoro-4-(1-methylpiperidin-4-yl)phenyl)amino)-5-methylpyrimidin-4yl)amino)pyrimidin-4-yl)-2-methylpropane-2-sulfonamide] | 0.9 |
| Cc1cnc(Nc2ccc(OCCN3CCCC3)c(F)c2)nc1Nc1cc(NS(=O)(=O)C(C)(C)C)ncn1 [MA10-176, N-(6-((2-((3-fluoro-4-(2-(pyrrolidin-1-yl)ethoxy)phenyl)amino)-5-methylpyrimidin-4-yl)amino)pyrimidin-4-yl)-2-methylpropane-2-sulfonamide] | 1.4 |
| Cc1cnc(Nc2cc(F)c(C3CCN(C)CC3)cn2)nc1Nc1cc(NS(=O)(=O)C(C)(C)C)ncn1 [MA10-178, N-(6-((2-((4-fluoro-5-(1-methylpiperidin-4-yl)pyridin-2-yl)amino)-5-methylpyrimidin-4-yl)amino)pyrimidin-4-yl)-2-methylpropane-2-sulfonamide] | 2.8 |
| Cc1cnc(Nc2ccc(C3CCN(C)CC3)c(F)n2)nc1Nc1cc(NS(=O)(=O)C(C)(C)C)ncn1 [MA10-179, N-(6-((2-((6-fluoro-5-(1-methylpiperidin-4-yl)pyridin-2-yl)amino)-5-methylpyrimidin-4-yl)amino)pyrimidin-4-yl)-2-methylpropane-2-sulfonamide] | 1.4 |
| Cc1cnc(Nc2ccc(C3CCN(C)CC3)c(F)c2)nc1Nc1ncc2ccn(S(=O)(=O)C(C)(C)C)c2n1 [MA11-003, N4-(7-(tert-butylsulfonyl)-7H-pyrrolo[2,3-d]pyrimidin-2-yl)-N2-(3-fluoro-4-(1-methylpiperidin-4-yl)phenyl)-5-methylpyrimidine-2,4-diamine] | 8.0 |
| Cc1cnc(Nc2cc(F)c(C3CCN(C)CC3)c(F)c2)nc1Nc1cc(NS(=O)(=O)C(C)(C)C)ncn1 [MA11-009, N-(6-((2-((3,5-difluoro-4-(1-methylpiperidin-4-yl)phenyl)amino)-5-methylpyrimidin-4-yl)amino)pyrimidin-4-yl)-2-methylpropane-2-sulfonamide] | 1.1 |

Further lines, results first:

| BRD4 DSF (ΔTm) [°C] | Compound |
| --- | --- |
| 13.5 | Cc1cnc(Nc2ccc(C3=CCN(C)CC3)c(F)c2)nc1Nc1ccc(Cl)c(NS(=O)(=O)C(C)(C)C)c1 [PN1-101, N-(2-Chloro-5-((2-((3-fluoro-4-(1-methyl-1,2,3,6-tetrahydropyridin-4-yl)phenyl)amino)-5-methylpyrimidin-4-yl)amino)phenyl)-2-methylpropane-2-sulfonamide] |
| 11.4 | Cc1cnc(Nc2cc(F)c(C3CCN(C)CC3)cc2F)nc1Nc1ccc(Cl)c(NS(=O)(=O)C(C)(C)C)c1 [PN1-102, N-(2-Chloro-5-((2-((2,5-difluoro-4-(1-methylpiperidin-4-yl)phenyl)amino)-5-methylpyrimidin-4-yl)amino)phenyl)-2-methylpropane-2-sulfonamide] |
| 12.7 | CN1CCC(c2ccc(Nc3ncc(C(F)F)c(Nc4ccc(Cl)c(NS(=O)(=O)C(C)(C)C)c4)n3)cc2F)CC1 [PN1-117, N-(2-Chloro-5-((5-(difluoromethyl)-2-((3-fluoro-4-(1-methylpiperidin-4-yl)phenyl)amino)pyrimidin-4-yl)amino)phenyl)-2-methylpropane-2-sulfonamide] |
| 11.6 | CN1CCC(c2ccc(Nc3ncc(I)c(Nc4ccc(Cl)c(NS(=O)(=O)C(C)(C)C)c4)n3)cc2F)CC1 [PN1-118, N-(2-Chloro-5-((2-((3-fluoro-4-(1-methylpiperidin-4-yl)phenyl)amino)-5-iodopyrimidin-4-yl)amino)phenyl)-2-methylpropane-2-sulfonamide] |
| 12.8 | CN1CCC(c2ccc(Nc3ncc([N+](=O)[O-])c(Nc4ccc(Cl)c(NS(=O)(=O)C(C)(C)C)c4)n3)cc2F)CC1 [PN1-132, N-(2-Chloro-5-((2-((3-fluoro-4-(1-methylpiperidin-4-yl)phenyl)amino)-5-nitropyrimidin-4-yl)amino)phenyl)-2-methylpropane-2-sulfonamide] |
| 1.1 | Cc1cnc(Nc2cc(F)ncn2)nc1Nc1ccc(Cl)c(NS(=O)(=O)C(C)(C)C)c1 [PN2-064, N-(2-Chloro-5-((2-((6-fluoropyrimidin-4-yl)amino)-5-methylpyrimidin-4-yl)amino)phenyl)-2-methylpropane-2-sulfonamide] |
| 12.3 | Cc1cnc(Nc2ccc(C3CCN(C)CC3)cn2)nc1Nc1ccc(Cl)c(NS(=O)(=O)C(C)(C)C)c1 [PN2-081, N-(2-Chloro-5-((5-methyl-2-((5-(1-methylpiperidin-4-yl)pyridin-2-yl)amino)pyrimidin-4-yl)amino)phenyl)-2-methylpropane-2-sulfonamide] |
| 14.5 | Cc1cnc(Nc2cc(F)c(C3CCNCC3)cn2)nc1Nc1ccc(Cl)c(NS(=O)(=O)C(C)(C)C)c1.Cl [PN2-084, N-(2-Chloro-5-((2-((4-fluoro-5-(piperidin-4-yl)pyridin-2-yl)amino)-5-methylpyrimidin-4-yl)amino)phenyl)-2-methylpropane-2-sulfonamide hydrochloride] |
| 11.5 | Cc1cnc(Nc2ccc(N3CCN(C)CC3)cn2)nc1Nc1ccc(Cl)c(NS(=O)(=O)C(C)(C)C)c1 [PN2-091, N-(2-Chloro-5-((5-methyl-2-((5-(4-methylpiperazin-1-yl)pyridin-2-yl)amino)pyrimidin-4-yl)amino)phenyl)-2-methylpropane-2-sulfonamide] |
| 12.4 | Cc1cnc(Nc2cc(F)c(C3CCN(C)CC3)cn2)nc1Nc1cccc(NS(=O)(=O)C(C)(C)C)c1 [PN2-103, N-(3-((2-((4-Fluoro-5-(1-methylpiperidin-4-yl)pyridin-2-yl)amino)-5-methylpyrimidin-4-yl)amino)phenyl)-2-methylpropane-2-sulfonamide] |
| 6.3 | Cc1cnc(Nc2ccc(C3CCN(C)CC3)cc2)cc1Nc1cccc(NS(=O)(=O)C(C)(C)C)c1 [SY3-030, 2-Methyl-N-(3-((5-methyl-2-((4-(1-methylpiperidin-4-yl)phenyl)amino)pyridin-4-yl)amino)phenyl)propane-2-sulfonamide] |

The molecules below were run on MM1.S cells (assay: Antiproliferative activity, MM1.S cells). Details: Homo sapiens, Table 2, read-out: GI50 (MM1S).
Format: cell-based
Experimental: Cellular activity of promising compounds is assessed using MM.1S and MV4-11 AML cells using c-Myc levels as biomarker (6-12 hr treatment) and antiproliferative activity (48-72 hr treatment) as described (Ciceri et al., Dual kinase-bromodomain inhibitors for rationally designed polypharmacology. Nat Chem Biol 2014).

| Compound | GI50 [nM] |
| --- | --- |
| Cc1cnc(Nc2ccc(N3CCN(C)CC3)c(F)c2)cc1Nc1ccc(Cl)c(NS(=O)(=O)C(C)(C)C)c1 [MA9-036, N-(2-Chloro-5-((2-((3-fluoro-4-(4-methylpiperazin-1-yl)phenyl)amino)-5-methylpyridin-4-yl)amino)phenyl)-2-methylpropane-2-sulfonamide] | 3120 |
| Cc1cnc(Nc2cc(F)c(N3CCN(C)CC3)c(F)c2)cc1Nc1ccc(Cl)c(NS(=O)(=O)C(C)(C)C)c1 [MA9-037, N-(2-Chloro-5-((2-((3,5-difluoro-4-(4-methylpiperazin-1-yl)phenyl)amino)-5-methylpyridin-4-yl)amino)phenyl)-2-methylpropane-2-sulfonamide·bisformate] | 2830 |
| Cc1cnc(Nc2ccc(C3CCN(C)CC3)c(F)c2)cc1Nc1ccc2c(c1)N(S(=O)(=O)C(C)(C)C)CC2 [MA9-064, N4-(1-(Tert-butylsulfonyl)indolin-6-yl)-N2-(3-fluoro-4-(1-methylpiperidin-4-yl)phenyl)-5-methylpyridine-2,4-diamine] | 1600 |

Results, then the molecule that gave them:

| GI50 [nM] | Compound |
| --- | --- |
| 100 | Cc1cnc(Nc2ccc(C3=CCN(C)CC3)c(F)c2)nc1Nc1ccc(Cl)c(NS(=O)(=O)C(C)(C)C)c1 [PN1-101, N-(2-Chloro-5-((2-((3-fluoro-4-(1-methyl-1,2,3,6-tetrahydropyridin-4-yl)phenyl)amino)-5-methylpyrimidin-4-yl)amino)phenyl)-2-methylpropane-2-sulfonamide] |
| 320 | Cc1cnc(Nc2cc(F)c(C3CCN(C)CC3)cc2F)nc1Nc1ccc(Cl)c(NS(=O)(=O)C(C)(C)C)c1 [PN1-102, N-(2-Chloro-5-((2-((2,5-difluoro-4-(1-methylpiperidin-4-yl)phenyl)amino)-5-methylpyrimidin-4-yl)amino)phenyl)-2-methylpropane-2-sulfonamide] |
| 240 | CN1CCC(c2ccc(Nc3ncc(C(F)F)c(Nc4ccc(Cl)c(NS(=O)(=O)C(C)(C)C)c4)n3)cc2F)CC1 [PN1-117, N-(2-Chloro-5-((5-(difluoromethyl)-2-((3-fluoro-4-(1-methylpiperidin-4-yl)phenyl)amino)pyrimidin-4-yl)amino)phenyl)-2-methylpropane-2-sulfonamide] |
| 210 | CN1CCC(c2ccc(Nc3ncc(I)c(Nc4ccc(Cl)c(NS(=O)(=O)C(C)(C)C)c4)n3)cc2F)CC1 [PN1-118, N-(2-Chloro-5-((2-((3-fluoro-4-(1-methylpiperidin-4-yl)phenyl)amino)-5-iodopyrimidin-4-yl)amino)phenyl)-2-methylpropane-2-sulfonamide] |
| 390 | Cc1cc(Nc2ncc(C)c(Nc3ccc(Cl)c(NS(=O)(=O)C(C)(C)C)c3)n2)c(F)cc1C1CCN(C)CC1 [PN1-119, N-(2-Chloro-5-((2-((2-fluoro-5-methyl-4-(1-methylpiperidin-4-yl)phenyl)amino)-5-methylpyrimidin-4-yl)amino)phenyl)-2-methylpropane-2-sulfonamide] |
| 360 | CN1CCC(c2ccc(Nc3ncc([N+](=O)[O-])c(Nc4ccc(Cl)c(NS(=O)(=O)C(C)(C)C)c4)n3)cc2F)CC1 [PN1-132, N-(2-Chloro-5-((2-((3-fluoro-4-(1-methylpiperidin-4-yl)phenyl)amino)-5-nitropyrimidin-4-yl)amino)phenyl)-2-methylpropane-2-sulfonamide] |
